PubChem BioAssay (NCI)
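Assay format: 96-well plates, 48-hour exposure. Here, GI50 denotes the concentration required for 50% inhibition of growth. The concentration for full growth arrest is given as TGI.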

What was measured:
Assay in all cases: growth of human tumour cells (NCI), 48 h
T-47D breast = system: T-47D breast
HOP-92 NSCLC = system: HOP-92 NSCLC
SNB-19 CNS = system: SNB-19 CNS
SF-539 CNS = system: SF-539 CNS
K-562 leukemia = system: K-562 leukemia
NCI-H23 lung = system: NCI-H23 lung
BT-549 breast = system: BT-549 breast
SK-MEL-28 melanoma = system: SK-MEL-28 melanoma
NCI-H522 lung = system: NCI-H522 lung
HCT-116 colon = system: HCT-116 colon

Compound	TGI (T-47D breast) [µM]	TGI (HOP-92 NSCLC) [µM]	TGI (SNB-19 CNS) [µM]	TGI (SF-539 CNS) [µM]	TGI (K-562 leukemia) [µM]	TGI (NCI-H23 lung) [µM]	TGI (BT-549 breast) [µM]	TGI (SK-MEL-28 melanoma) [µM]	TGI (NCI-H522 lung) [µM]	TGI (HCT-116 colon) [µM]	GI50 (HOP-92 NSCLC) [µM]	GI50 (SF-539 CNS) [µM]	GI50 (K-562 leukemia) [µM]	GI50 (NCI-H23 lung) [µM]	GI50 (BT-549 breast) [µM]	GI50 (NCI-H522 lung) [µM]
O=c1c2ccccc2[nH]n1Cc1ccccc1	> 100	> 100	> 100	> 100	> 100	> 100	> 100	> 100	> 100	> 100	–	–	–	–	–	–
N#CC1(C#N)NC(c2ccccc2)C(C#N)(C#N)NC1c1ccccc1 (stereo not drawn)	> 100	> 100	> 100	> 100	> 100	> 100	> 100	> 100	> 100	> 100	–	–	–	–	–	–
OC1c2ccccc2CCC1CN1CCN(CCOC(c2ccc(F)cc2)c2ccc(F)cc2)CC1 (stereo not drawn)	52.9	24.4	> 100	20.1	27.5	32.2	25.1	26.6	33.6	20.8	–	–	–	–	–	–
COC(=O)N1CC(=O)C(C(=O)NC23CC4CC(CC(C4)C2)C3)C1 (stereo not drawn)	> 100	> 100	> 100	> 100	> 100	> 100	> 100	> 100	> 100	> 100	–	–	–	–	–	–
COc1cc(CSc2ccc(O)cc2)cc(OC)c1OC	55.5	71.3	> 100	> 100	> 100	> 100	48.3	> 100	> 100	> 100	–	–	–	–	–	–
NS(=O)(=O)c1nnc(NC(=O)C23CC4CC(CC(C4)C2)C3)s1	> 100	> 100	> 100	> 100	> 100	> 100	> 100	> 100	> 100	> 100	–	–	–	–	–	–
CC(Oc1ccccc1Cl)C(=O)NN1C(=O)CC(=O)N(c2ccccc2)C1=S (stereo not drawn)	> 100	68.8	> 100	> 100	> 100	> 100	> 100	> 100	> 100	> 100	–	–	–	–	–	–
COc1ccc([N+](=O)[O-])c2c(NCCCN(C)C)ccnc12	29	4.38	28.2	17	5.73	6.19	6.45	> 100	3.34	22.8	–	–	–	–	–	–
COc1ccc(/C=C/C(=O)/C=C/c2ccc(OC)cc2OC)c(OC)c1	> 100	67.5	82.8	36.7	8.4	43	48	22.5	8.7	21.3	–	–	–	–	–	–
CCCCCCCCCCCCOP(=O)(O)OP(=O)(O)OCC1OC(n2ccc(N)nc2=O)CC1O (stereo not drawn)	> 100	> 100	> 100	> 100	> 100	> 100	> 100	> 100	> 100	> 100	–	–	–	–	–	–
CCCCCCCCCCCC(=O)OC[C@H](C[As](=O)(O)O)OC(=O)CCCCCCCCCCC	47.2	3.85	17.7	38.6	> 52.5	21.2	11.3	11.9	5.09	21.7	–	–	–	–	–	–
COCCN(CCNC(=O)c1cccc2c(N)c3cccc(C)c3nc12)CCOC	27.5	> 57.7	22.3	4.64	–	3.53	20.3	> 41.1	0.894	–	–	–	–	–	–	–
C1CSCCSCCCSC2CCCCC2SC1 (stereo not drawn)	> 100	> 100	> 100	> 100	> 100	> 100	> 100	> 100	> 100	> 100	–	–	–	–	–	–
COc1cc(C)c(/C=C2/N=C(c3ccccc3)OC2=O)c([N+](=O)[O-])c1OC	> 100	> 100	> 100	> 100	> 100	> 100	> 100	> 100	> 100	> 100	–	–	–	–	–	–
Cc1c(C)c(C)c(Cn2[nH]c(=O)n(C)c2=O)c(C)c1C	> 100	> 100	> 100	> 100	> 100	> 100	> 100	> 100	> 100	> 100	–	–	–	–	–	–
COc1cc2c(c(OC)c1OC)C(=O)[C@@H]1[C@H]2N1C(=O)NCCCl	> 100	> 100	> 100	> 100	> 100	> 100	> 100	> 100	> 100	> 100	–	–	–	–	–	–
COc1cc(-c2nc3ccc(N4CCN(C)CC4)cc3[nH]2)c(OC)c2[nH]c(COC(C)=O)nc12	> 100	> 100	> 100	> 100	> 100	> 100	> 100	> 100	> 100	> 100	–	–	–	–	–	–

Compound	TGI (T-47D breast) [µM]	TGI (HOP-92 NSCLC) [µM]	TGI (SNB-19 CNS) [µM]	TGI (SF-539 CNS) [µM]	TGI (K-562 leukemia) [µM]	TGI (NCI-H23 lung) [µM]	TGI (BT-549 breast) [µM]	TGI (SK-MEL-28 melanoma) [µM]	TGI (NCI-H522 lung) [µM]	TGI (HCT-116 colon) [µM]	GI50 (HOP-92 NSCLC) [µM]	GI50 (SF-539 CNS) [µM]	GI50 (K-562 leukemia) [µM]	GI50 (NCI-H23 lung) [µM]	GI50 (BT-549 breast) [µM]	GI50 (NCI-H522 lung) [µM]
Cc1cccc(Br)[n+]1[O-]	> 100	> 100	> 100	> 100	> 100	> 100	> 100	> 100	> 100	> 100	–	–	–	–	–	–
Cc1ccc(C(=O)Nc2ccc(CP(=O)(O)O)cc2)cc1NC(=O)c1cccc(N)c1	> 100	> 100	> 100	> 100	> 100	> 100	> 100	> 100	> 100	> 100	–	–	–	–	–	–
COC(=O)/C=C\C(C#N)(C#N)N=Cc1cccc(OC)c1	18.9	7.29	46.3	7.83	> 100	16.4	20.4	29.4	3	7.14	–	–	–	–	–	–
CC(=O)Oc1cc(S(=O)(=O)Nc2n[nH]c(Nc3ccc(C)cc3)n2)c(S)cc1Cl	> 100	> 100	> 100	> 100	> 100	> 100	> 100	> 100	> 100	> 100	–	–	–	–	–	–
Cc1nc(SCC(=O)Nc2ccc(Cl)cc2)c2sc(=S)n(-c3ccccc3)c2n1	> 10	> 10	> 10	> 10	> 10	> 10	> 10	> 10	> 10	> 10	–	–	–	–	–	–
CSC1(C)C(=O)Nc2c(OCc3ccccc3)cc([N+](=O)[O-])cc21 (stereo not drawn)	> 100	> 100	> 100	> 100	> 100	> 100	> 100	> 100	> 100	> 100	–	–	–	–	–	–
S=C(N/N=C(\c1ccccc1)c1ccccn1)NC1CCCCC1	> 100	> 100	> 100	> 100	> 100	> 100	> 100	> 100	> 100	> 100	–	–	–	–	–	–
COc1cc(C2C3=C(COC3=O)Oc3cc4c(cc32)OCO4)ccc1O (stereo not drawn)	> 100	> 78.1	> 100	1.03	> 100	> 100	> 100	> 100	1.31	> 48.3	–	–	–	–	–	–
CCCNC(=S)N/N=C(\C)c1ccc(S(=O)(=O)N(C)c2ccccc2)cc1	> 100	> 100	> 87.3	21.7	> 100	> 100	> 100	> 100	> 100	> 100	–	–	–	–	–	–
COC(=O)C1CCN(C(=O)OC(C)(C)C)CC1	> 100	> 100	> 100	> 100	–	> 100	> 100	> 100	> 100	> 100	–	–	–	–	–	–
NNC(=O)CC(=O)Nc1cccc(Cl)c1	> 100	> 100	> 100	> 100	> 100	> 100	> 100	> 100	> 100	> 100	–	–	–	–	–	–
CSc1nc(C)cc(Nc2ccc(O)c(CN3CCOCC3)c2)n1	> 100	> 100	> 100	> 100	> 100	> 100	> 100	> 100	> 100	> 100	–	–	–	–	–	–
CCOC(=O)NN(C(=O)OCC)C(C(=O)C1=CCCCC1)N(NC(=O)OCC)C(=O)OCC	> 100	> 100	> 100	> 100	> 100	> 100	> 100	> 100	> 100	> 100	–	–	–	–	–	–
CN(C)c1ccc(/C=C/c2ccc(S(N)(=O)=O)cc2)cc1	80.4	36	44.9	25.6	> 100	44	8.62	28	25.6	67.2	16.6	11.7	> 100	14.2	2.14	6.88
CC(=O)c1[nH]c(NC(C)C)c(C(=S)Nc2ccccc2)c1N	82.6	92.4	91.5	> 100	> 100	> 100	86.4	87.7	31.7	64.4	–	–	–	–	–	–
Cc1cc(Cl)nc2nc(Cl)c(N)cc12	15.4	4.46	9.57	30.6	> 100	23.4	28.4	6.21	12	5.92	–	–	–	–	–	–
